In PubChem BioAssay AID2060341 (Molecular Pharmacology Branch, DTP, NCI, 2025):

Test system: 327498-153-R-J2-PDC multicell spheroid viability
Assay: Anticancer human tumor 327498-153-R-J2-PDC patient-derived uterine carcinosarcoma cell line growth inhibition [IpAb]
Settings: for IC50: curve of first compound; for viability, T/C: stronger effect = lower value
Source text: Combinatorial screen of targeted agents with ipatasertib and abemaciclib in multi-cell type tumor spheroids
A high-throughput screen of multi-cell type tumor spheroids was designed to identify active combinations of targeted small molecules and ipatasertib or abemaciclib. Complex spheroids include a stromal component modeled by human endothelial cells (HUVEC) and fibroblasts modeled by human mesenchymal stem cells (MSCs). The concentration ranges selected for each drug and investigational agent were based upon clinically achievable concentrations if the clinical Cmax of the agent was known.
Compounds. The drugs and investigational agents: ipatasertib (NSC767898), abemaciclib(NSC768073), selumetinib (NSC741078), trametinib (758246), adavosertib (NSC754352), everolimus (NSC733504), sapanisertib (NSC764658), vemurafenib (NSC761431), venetoclax (NSC766270), copanlisib (NSC809693), apelisib (NSC765974), palbociblib (NSC758247), vemurafenib (NSC761431), dabrafenib (NSC764134), ravoxertinib (NSC781343), BMS-387032 (NSC767048), sotorasib (NSC818433), talazoparib (NSC767125) and afursertib (NSC778305), were obtained from the National Cancer Institute (NCI) Developmental Therapeutics Program Chemical Repository. The FDA-approved anticancer drug set is available from the NCI Developmental Therapeutics Program. […] The stock solutions were prepared in dimethyl sulfoxide (DMSO, Sigma-Aldrich, St. Louis, MO, cat. D2650) at 800-fold the tested concentration and stored at -70 degrees C prior to their use. All drugs and investigational agents were tested over a range starting from a high concentration at or near the clinical Cmax and decreasing in half-log increments. If the clinical Cmax for an agent had not been determined, the highest concentration tested was 10 microM.
NCI60 Cell Culture. NCI60 cell lines were obtained from the NCI Developmental Therapeutics Program Tumor Repository. For each lot of cells, the Repository performed Applied Biosystems AmpFLSTR Identifiler testing with PCR amplification to confirm consistency with the published Identifier STR profile for each cell line. Cells were kept in continuous culture for no more than 20 passages. The optimal seeding densities for each of the cell lines at each time point assessed were determined prior to performing the concentration response studies. Briefly, the NCI60 human tumor lines were grown as monolayers in RPMI 1640 medium supplemented with 10% FBS and 2 mmol/L L-glutamine.
An additional 9 lines were from the NCI60 cell line panel including MDA-MB-231 breast carcinoma, MDA-MB-468 breast carcinoma, MCF7 breast carcinoma, Hs578T breast carcinoma, MALME-3M melanoma, SK-MEL-2 melanoma, SK-OV-3 ovarian carcinoma, DU-145 prostate carcinoma, PC-3 prostate carcinoma, all cell lines along with major genetic alterations are listed on Table 2. Pooled donor human umbilical vein endothelial cells (HUVEC, Lonza, cat. CC-2519) and human mesenchymal stem cells (hMSC, Lonza, cat. PT-2501) were purchased from Lonza (Walkersville, MD).
PDMR cell lines were grown in complete medium (DC medium): Dulbecco's modified Eagle's medium (DMEM)/F12 supplemented with 5% fetal bovine serum (FBS), 2 mM L-glutamine, 100 U/mL penicillin and 100 µg/ml streptomycin, 0.4 µg/ml hydrocortisone, 10 ng/ml epidermal growth factor (EGF) recombinant human protein, 24 µg/mL adenine, and 0.1 mg/mL primocin. During culture from frozen stock vials, PDMR cells were cultured in the same medium containing 10 µM Y-27632 (see Table 3). The PDCs were cultured in complete DMEM/F12 media without 10 microM Y-27632 dihydrochloride for at least two passages prior to the screen. The pooled donor HUVEC and hMSC were cultured in endothelial cell growth medium 2 (PromoCell, Heidelberg, Germany, cat. C-22011) and mesenchymal stem cell growth medium 2 (PromoCell, cat. C-28009), respectively. For all experiments, HUVEC and hMSC were used at passages </=5.
[…]

[1] = second compound 0.1 µM, first compound 0.0316 µM
[2] = second compound 0.1 µM, first compound 0.1 µM
[3] = second compound 0.1 µM, first compound 0.316 µM
[4] = second compound 0.1 µM, first compound 1 µM
[5] = second compound 0.316 µM, first compound 0.0316 µM
[6] = second compound 0.316 µM, first compound 0.1 µM
[7] = second compound 0.316 µM, first compound 0.316 µM
[8] = second compound 0.316 µM, first compound 1 µM
[9] = second compound 1 µM, first compound 0.0316 µM
[10] = second compound 1 µM, first compound 0.1 µM
[11] = second compound 1 µM, first compound 0.316 µM
[12] = second compound 1 µM, first compound 1 µM
[13] = second compound 3.16 µM, first compound 0.0316 µM
[14] = second compound 3.16 µM, first compound 0.1 µM
[15] = second compound 3.16 µM, first compound 0.316 µM
[16] = second compound 3.16 µM, first compound 1 µM
[17] = second compound 10 µM, first compound 0.0316 µM
[18] = second compound 10 µM, first compound 0.1 µM
[19] = second compound 10 µM, first compound 0.316 µM
[20] = second compound 10 µM, first compound 1 µM
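Also: spheroids exposed to agents for 7 days.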
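For viability, T/C in this document: 100% = DMSO vehicle control viability.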

CC(=O)c1c(C)c2cnc(Nc3ccc(N4CCNCC4)cn3)nc2n(C2CCCC2)c1=O + CC(C)NCC(C(=O)N1CCN(c2ncnc3c2C(C)CC3O)CC1)c1ccc(Cl)cc1
IC50 (second compound 0.1 µM): > 0.3 µM
IC50 (second compound 0.316 µM): 0.0457 µM
IC50 (second compound 1 µM): 0.00723 µM
IC50 (second compound 3.16 µM): 0.00134 µM
IC50 (second compound 10 µM): < 0.000949 µM
viability, T/C (second compound 0.1 µM, first compound 0.000949 µM): 96.4%
viability, T/C (second compound 0.1 µM, first compound 0.003 µM): 101%
viability, T/C (second compound 0.1 µM, first compound 0.00949 µM): 91.2%
viability, T/C (second compound 0.1 µM, first compound 0.03 µM): 68.8%
viability, T/C (second compound 0.1 µM, first compound 0.0949 µM): 65.9%
viability, T/C (second compound 0.1 µM, first compound 0.3 µM): 55.4%
viability, T/C (second compound 0.316 µM, first compound 0.000949 µM): 81.6%
viability, T/C (second compound 0.316 µM, first compound 0.003 µM): 71.2%
viability, T/C (second compound 0.316 µM, first compound 0.00949 µM): 68.2%
viability, T/C (second compound 0.316 µM, first compound 0.03 µM): 51.8%
viability, T/C (second compound 0.316 µM, first compound 0.0949 µM): 44.1%
viability, T/C (second compound 0.316 µM, first compound 0.3 µM): 41.5%
viability, T/C (second compound 1 µM, first compound 0.000949 µM): 61.5%
viability, T/C (second compound 1 µM, first compound 0.003 µM): 57.5%
viability, T/C (second compound 1 µM, first compound 0.00949 µM): 48%
viability, T/C (second compound 1 µM, first compound 0.03 µM): 34.1%
viability, T/C (second compound 1 µM, first compound 0.0949 µM): 34.5%
viability, T/C (second compound 1 µM, first compound 0.3 µM): 31.3%
viability, T/C (second compound 3.16 µM, first compound 0.000949 µM): 51.7%
viability, T/C (second compound 3.16 µM, first compound 0.003 µM): 46.2%
viability, T/C (second compound 3.16 µM, first compound 0.00949 µM): 35.2%
viability, T/C (second compound 3.16 µM, first compound 0.03 µM): 33.4%
viability, T/C (second compound 3.16 µM, first compound 0.0949 µM): 25%
viability, T/C (second compound 3.16 µM, first compound 0.3 µM): 24.6%
viability, T/C (second compound 10 µM, first compound 0.000949 µM): 33.4%
viability, T/C (second compound 10 µM, first compound 0.003 µM): 36.7%
viability, T/C (second compound 10 µM, first compound 0.00949 µM): 28.1%
viability, T/C (second compound 10 µM, first compound 0.03 µM): 20.9%
viability, T/C (second compound 10 µM, first compound 0.0949 µM): 21.9%
viability, T/C (second compound 10 µM, first compound 0.3 µM): 21.9%

COc1c(OCCCN2CCOCC2)ccc2c3n(c(=NC(=O)c4cnc(N)nc4)nc12)CCN3 + CC(C)NCC(C(=O)N1CCN(c2ncnc3c2C(C)CC3O)CC1)c1ccc(Cl)cc1
IC50 (second compound 0.1 µM): 0.0459 µM
IC50 (second compound 0.316 µM): 0.0358 µM
IC50 (second compound 1 µM): 0.00421 µM
IC50 (second compound 3.16 µM): < 0.00316 µM
IC50 (second compound 10 µM): < 0.00316 µM
viability, T/C (second compound 0.1 µM, first compound 0.00316 µM): 81.6%
viability, T/C (second compound 0.1 µM, first compound 0.01 µM): 74.9%
viability, T/C [1]: 58%
viability, T/C [2]: 33.3%
viability, T/C [3]: 16.8%
viability, T/C [4]: 9.2%
viability, T/C (second compound 0.316 µM, first compound 0.00316 µM): 67.2%
viability, T/C (second compound 0.316 µM, first compound 0.01 µM): 67.5%
viability, T/C [5]: 52.1%
viability, T/C [6]: 27.5%
viability, T/C [7]: 15.2%
viability, T/C [8]: 8.52%
viability, T/C (second compound 1 µM, first compound 0.00316 µM): 53.5%
viability, T/C (second compound 1 µM, first compound 0.01 µM): 39.2%
viability, T/C [9]: 32.4%
viability, T/C [10]: 21.1%
viability, T/C [11]: 9.37%
viability, T/C [12]: 7.49%
viability, T/C (second compound 3.16 µM, first compound 0.00316 µM): 42.2%
viability, T/C (second compound 3.16 µM, first compound 0.01 µM): 33.3%
viability, T/C [13]: 23.6%
viability, T/C [14]: 15%
viability, T/C [15]: 8.38%
viability, T/C [16]: 5.77%
viability, T/C (second compound 10 µM, first compound 0.00316 µM): 34.2%
viability, T/C (second compound 10 µM, first compound 0.01 µM): 25.9%
viability, T/C [17]: 22.4%
viability, T/C [18]: 11.9%
viability, T/C [19]: 7.65%
viability, T/C [20]: 4.58%

Cc1nc(NC(=O)N2CCCC2C(N)=O)sc1-c1ccnc(C(C)(C)C(F)(F)F)c1 (stereo not given) + CC(C)NCC(C(=O)N1CCN(c2ncnc3c2C(C)CC3O)CC1)c1ccc(Cl)cc1
IC50 (second compound 0.1 µM): 9.91 µM
IC50 (second compound 0.316 µM): 4.45 µM
IC50 (second compound 1 µM): 1.23 µM
IC50 (second compound 3.16 µM): 0.0499 µM
IC50 (second compound 10 µM): < 0.0316 µM
viability, T/C [1]: 91.1%
viability, T/C [2]: 93.2%
viability, T/C [3]: 83.3%
viability, T/C [4]: 72.7%
viability, T/C (second compound 0.1 µM, first compound 3.16 µM): 63.8%
viability, T/C (second compound 0.1 µM, first compound 10 µM): 49.4%
viability, T/C [5]: 72%
viability, T/C [6]: 70.5%
viability, T/C [7]: 67.8%
viability, T/C [8]: 59.2%
viability, T/C (second compound 0.316 µM, first compound 3.16 µM): 57.8%
viability, T/C (second compound 0.316 µM, first compound 10 µM): 38.5%
viability, T/C [9]: 56.4%
viability, T/C [10]: 57.7%
viability, T/C [11]: 59.2%
viability, T/C [12]: 49.8%
viability, T/C (second compound 1 µM, first compound 3.16 µM): 42.5%
viability, T/C (second compound 1 µM, first compound 10 µM): 30.5%
viability, T/C [13]: 54.3%
viability, T/C [14]: 44.9%
viability, T/C [15]: 36.2%
viability, T/C [16]: 34.6%
viability, T/C (second compound 3.16 µM, first compound 3.16 µM): 33.7%
viability, T/C (second compound 3.16 µM, first compound 10 µM): 21.3%
viability, T/C [17]: 38.7%
viability, T/C [18]: 31.7%
viability, T/C [19]: 26.6%
viability, T/C [20]: 23.5%
viability, T/C (second compound 10 µM, first compound 3.16 µM): 25.5%
viability, T/C (second compound 10 µM, first compound 10 µM): 17.2%
